From patent US20250241901A1, “ACTIVATION OF MNRR1 / CHCHD2 AS A THERAPEUTIC TARGET FOR MITOCHONDRIA ASSOCIATED DISORDERS” (Wayne State University, priority 2024, published 2025)

Columns and labels:
Format in all cases: cell-based, human
[1] = tested on: PHD3; assay: PHD3 protein levels in MELAS cybrid cells (immunoblot); details: 10 μM, 24 h
Description: FIGS. 14A-14D: PHD3 levels are reduced in MELAS cybrid cells and enhanced by nitazoxanide to increase MNRR1 levels. FIG. 14A: Transcript levels of PHD1, 2, and 3 in MELAS cybrid cells harboring the levels of heteroplasmy shown (data from). FIG. 14B: Protein levels of PHD3 in MELAS cybrid cells with 0% (CL9) and 70% heteroplasmy (DW7). GAPDH was probed as loading control. FIG. 14C: Equal amounts of MELAS cybrid cell lysates, treated with vehicle (DMSO), nitazoxanide, or tizoxanide (10 μM) for 24 h, were separated on an SDS-PAGE gel and probed for PHD1, PHD3, MNRR1, and Tubulin. FIG. 14D: Oxygen consumption measured from MELAS cybrid cells overexpressing PHD1 or PHD3. (n=4 biological replicates, error bars show SE).
Immunoblotting: Immunoblotting was performed as described previously. Cell lysates for immunoblotting were prepared using RIPA buffer (Abcam, Waltham, MA) and included a protease and phosphatase inhibitor cocktail (Sigma, St. Louis, MO). Total protein extracts were obtained by centrifugation at 21,000×g for 30 min at 4° C. The clear supernatants were transferred to new tubes and quantified using the Bradford reagent with BSA as standard (BioRad, Hercules. CA). […] For detection after immunoblotting, the SuperSignal™ West Pico PLUS substrate (ThermoFisher, Waltham, MA) was used to generate chemiluminescence signal, which was detected with X-Ray film (RadTech, Vassar, MI).

[2] = tested on: MNRR1 promoter; assay: Dual luciferase reporter assay with MNRR1 promoter deletions in MELAS cybrid cells; details: 10 μM, 24 h
Description: FIGS. 9A-9E: Nitazoxanide acts by reducing HIF2α levels in MELAS cells. FIG. 9A: Schematic representation of deleted regions of the MNRR1 promoter. FIG. 9B: Dual luciferase reporter assay using the MNRR1 promoter deletions in cells treated with vehicle (DMSO), nitazoxanide, or tizoxanide (10 μM) for 24 h (n=4 biological replicates). FIG. 9C: DNA sequence of region of 800-952 bp in the MNRR1 promoter (SEQ ID NO: 25) highlighting binding sites of the transcription factors shown. FIG. 9D: Transcript levels of HIF2α and HIF1α in MELAS cybrid cells harboring different levels of heteroplasmy (0% to 100%). Data from. FIG. 9E: Protein levels of HIF2α and HIF1α in cybrid cells with 0% (CL9) and 70% MELAS heteroplasmy (DW7) In all figures, * indicates p<0.05, ** indicates p<0.005.
Luciferase reporter assay: Luciferase assays were performed with the dual-luciferase reporter assay kit (Promega). Briefly, cells were lysed in 1× passive lysis buffer (Promega) and 25 μL of lysate was used for assay with a tube luminometer using an integration time of 10 s. Transfection efficiency was normalized with the co-transfected pRL-SV40 Renilla luciferase expression plasmid.

[3] = tested on: HIF2α; assay: HIF2α transcript levels (RT-PCR); details: 18S rRNA as housekeeper
Excerpt: FIG. 13: RT-PCR for measuring HIF2α levels. 18S rRNA was used as housekeeper for both analyses (n=3 biological replicates).
Real-time polymerase chain reaction (RT-PCR): Total cellular RNA was extracted from MELAS cells with a RNeasy Plus Mini Kit (Qiagen) according to the manufacturer's instructions. Complementary DNA (cDNA) was generated by reverse transcriptase polymerase chain reaction (PCR) using the ProtoScript® II First Strand cDNA Synthesis Kit (New England Biolabs, Ipswich, MA). Transcript levels were measured by real time PCR using SYBR green on an ABI 7500 system. Real-time analysis was performed by the ΔΔ^Ct method. The primers used were MNRR1 forward: 5′-[…]-3′ (SEQ ID NO: 9), reverse: 5′-[…]-3′ (SEQ ID NO: 10); 18s forward: 5′-[…]-3′ (SEQ ID NO: 11), reverse: 5′-[…]-3′ (SEQ ID NO: 12), PHD1(EGLN2) forward: 5′-[…]-3′ (SEQ ID NO: 13), reverse: 3′-TCCTTGGCATCAAAATACC-5′ [32](SEQ ID NO: 14); PHD3(EGLN3) forward 5′-[…]-3′ (SEQ ID NO: 15), reverse: 3′-ATGCAGGTGATGCAGCGA-5′ [33](SEQ ID NO: 16) and HIF2α (EPAS1) forward: 5′-[…]-3′ (SEQ ID NO: 17), reverse: 3′-[…]-5′ (SEQ ID NO: 18).

[4] = tested on: MNRR1; assay: MNRR1 transcript levels in MELAS cells (RT-PCR); details: relative to 18S rRNA
Description: FIGS. 6A-6C: FIG. 6A: Above, Chemical structures of nitazoxanide, its metabolites, and similar compounds. Abbreviations: P4, Phenyl-4-aminosalicylic acid; 4ABA, 4-Aminobenzanilide; 4ASA, 4-Amino salicylic acid; BA, Benzanilide; PBO, Phenyl benzoate; PSA, Phenyl salicylic acid; 2AN, 2-Amino 5-nitrothiazole. Below, Equal amounts of lysates of MELAS cells treated with Vehicle (DMSO) or the various compounds (10 μM) for 24 h were separated on an SDS-PAGE gel and probed for MNRR1 levels. Actin was probed as a loading control and numbers below represent an average and SD of 3 biological replicates. FIGS. 6B-6C: MNRR1 transcript levels are shown relative to 18S rRNA (n=4 biological replicates, error bars represent SE). In all figures, * indicates p<0.05, ** indicates p<0.005.
Real-time polymerase chain reaction (RT-PCR): Total cellular RNA was extracted from MELAS cells with a RNeasy Plus Mini Kit (Qiagen) according to the manufacturer's instructions. Complementary DNA (cDNA) was generated by reverse transcriptase polymerase chain reaction (PCR) using the ProtoScript® II First Strand cDNA Synthesis Kit (New England Biolabs, Ipswich, MA). Transcript levels were measured by real time PCR using SYBR green on an ABI 7500 system. Real-time analysis was performed by the ΔΔ^Ct method. […]

| Compound | PHD3 protein level [1] | activation of MNRR1 promoter with deletion of the 801-952 region [2] | HIF2α transcript levels [3] | MNRR1 transcription [4] |
| --- | --- | --- | --- | --- |
| CC(=O)Oc1ccccc1C(=O)Nc1ncc([N+](=O)[O-])s1 [nitazoxanide, Nitazoxanide] | increasing | failed to display activation | absence of any change | induced its transcription |
| O=C(Nc1ncc([N+](=O)[O-])s1)c1ccccc1O [tizoxanide, Tizoxanide] | most increased | failed to display activation | absence of any change | induced its transcription |
